# Reference: US8367838B2, “Amines or amino alcohols as GLYT1 inhibitors” (Hoffmann-La Roche Inc., priority 2009, dated 2013)
# Where a name gives a salt, the structure may show the parent alone.
# Molecular target: T1, mGlyT-1b (Mus musculus, UniProt P28571)
# T1 construct: host or cells: Flp-in-CHO
# T1 sequence (P28571 1-651 isoform P28571-2): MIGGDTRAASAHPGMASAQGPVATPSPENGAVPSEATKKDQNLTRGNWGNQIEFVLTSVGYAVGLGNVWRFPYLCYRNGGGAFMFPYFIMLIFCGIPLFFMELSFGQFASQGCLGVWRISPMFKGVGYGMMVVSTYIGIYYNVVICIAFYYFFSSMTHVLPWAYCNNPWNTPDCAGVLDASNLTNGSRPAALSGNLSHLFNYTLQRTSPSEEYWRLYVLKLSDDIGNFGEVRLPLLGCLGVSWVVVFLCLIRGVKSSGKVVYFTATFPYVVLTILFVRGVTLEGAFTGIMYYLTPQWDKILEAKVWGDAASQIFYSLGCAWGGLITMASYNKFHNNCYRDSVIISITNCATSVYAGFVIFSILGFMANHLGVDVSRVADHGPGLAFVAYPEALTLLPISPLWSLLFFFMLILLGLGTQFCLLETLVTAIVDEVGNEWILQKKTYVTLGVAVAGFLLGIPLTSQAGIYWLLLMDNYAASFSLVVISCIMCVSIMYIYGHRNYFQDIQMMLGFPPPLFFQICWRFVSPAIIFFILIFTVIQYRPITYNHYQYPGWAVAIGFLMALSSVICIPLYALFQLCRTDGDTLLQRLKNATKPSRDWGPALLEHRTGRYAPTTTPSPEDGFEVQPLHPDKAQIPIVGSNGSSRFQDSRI
# Experiment: Glycine uptake inhibition assay (mGlyT-1b), [3H]-glycine uptake in transfected Flp-in-CHO cells
# Format: cell-based
# Conditions: Flp-in-CHO cells transfected with mGlyT-1b cDNA; [3H]-glycine 60 nM and 25 μM non-radioactive glycine; 20 min preincubation at 22° C.; read-out: IC50 (μM) at GlyT-1; Ic50 (hglyt1b)
# In short: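 Flp-in CHO cells stably expressing mouse GlyT-1b were preincubated 20 min at 22 °C with inhibitor in pH 7.4 Hepes-Tris buffer. Uptake was then run with 60 nM [3H]-glycine plus 25 μM unlabeled glycine, with 10 mM glycine defining nonspecific uptake. Cell radioactivity was counted by scintillation to derive IC50.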
row,SMILES,IC50 [µM]
1,"N[C@@H](c1ccc(Cl)c(Cl)c1)[C@H](O)c1ccc(OCC(O)CCCl)cc1F (mixture of isomers) [Example 29, rac-erythro-[1-[4-[(rac)-2-Amino-2-(3,4-dichloro-phenyl)-1-hydroxy-ethyl]-3-fluoro-phenoxy]-4-chloro-butan-2-ol hydrochloride]",0.462
2,"N[C@@H](c1ccc(Cl)c(Cl)c1)[C@H](O)c1ccc(OC2CCOC2)cc1F (mixture of isomers) [Example 16, rac-erythro-[rac-2-Amino-2-(3,4-dichloro-phenyl)-1-[2-fluoro-4-(tetrahydro-furan-3-yloxy)-phenyl]-ethanol hydrochloride]",0.039
3,"N[C@@H](c1ccc(C(F)(F)F)c(F)c1)[C@H](O)c1ccc(-c2cccnc2)cc1 (racemic) [Example 95, rac-erythro-2-Amino-2-(3-fluoro-4-trifluoromethyl-phenyl)-1-(4-pyridin-3-yl-phenyl)-ethanol]",0.158
4,"N[C@@H](c1ccc(Cl)c(Cl)c1)[C@H](O)c1ccc(OCC2CCCO2)cc1F (mixture of isomers) [Example 28, rac-erythro-[2-Amino-2-(3,4-dichloro-phenyl)-1-[2-fluoro-4-(tetrahydro-furan-2-ylmethoxy)-phenyl]-ethanol, hydrochloride salt]",0.33
5,"Cc1ccc([C@H](N)[C@H](O)c2ccc(-c3cccnc3)cc2)cc1F (racemic) [Example 91, rac-erythro-2-Amino-2-(3-fluoro-4-methyl-phenyl)-1-(4-pyridin-3-yl-phenyl)-ethanol]",0.073
6,"N[C@@H](c1ccc(Cl)cc1)[C@H](O)c1ccc(-c2cccc(Cl)c2)cc1 (racemic) [Example 74, rac-erythro-2-Amino-1-(3′-chloro-biphenyl-4-yl)-2-(4-chloro-phenyl)-ethanol]",0.544
7,"Cc1cc([C@@H](O)[C@@H](N)c2ccc(Cl)c(Cl)c2)cnc1OC1CCOCC1 (racemic) [Example 26, rac-erythro-[2-Amino-2-(3,4-dichloro-phenyl)-1-[5-methyl-6-(tetrahydro-pyran-4-yloxy)-pyridin-3-yl]-ethanoldihydrochloride]",0.239
8,"N[C@@H](c1ccc(Cl)c(Cl)c1)[C@H](O)c1ccc(Oc2ccccc2)cc1 (racemic) [Example 100, rac-erythro-2-Amino-2-(3,4-dichloro-phenyl)-1-(4-phenoxy-phenyl)-ethanol]",0.323
9,"N[C@@H](c1ccc(Cl)c(Cl)c1)[C@H](O)c1ccc(OC2CCOC2)nc1 (mixture of isomers) [Example 19, rac-erythro-[rac-2-Amino-2-(3,4-dichloro-phenyl)-1-[6-(tetrahydro-furan-3-yloxy)-pyridin-3-yl]-ethanoldihydrochloride]",0.082
